The record followed here is US5736568A, “2-(aminoalkoxy) phenylalkylamines with antiinflammatory activity” (Knoll Aktiengesellschaft, priority 1994, dated 1998).

The subject of test [1] is arachidonic acid release from zymosan stimulated macrophages. Kind of test: Test A: Inhibition of Arachidonic Acid Release from Zymosan Stimulated Macrophages. Type of test: cell-based, mice (female MF1). The conditions noted are these: Mus musculus, Macrophage; peritoneal macrophages labelled with [3H]-arachidonic acid, zymosan stimulus, 5 h; tested at 100, 50, 20, 10, 5 and 1 μM. As to the method:
Test A was carried out in the following way:
Inhibition of Arachidonic Acid Release from Zymosan Stimulated Macrophages
Female MF1 mice (weighing 20 to 25 g) were killed using a rising concentration of CO2. The mice were laid on their backs and the abdomens wiped with 70% alcohol. The skin was pulled back, exposing the peritoneal wall. Medium A (5 ml) (see below) was injected into the peritoneal cavity of each mouse followed by approximately 1 ml of air using a 20 ml syringe and a 21 G×40 mm needle in order to form a suspension of macrophage cells. The medium and cells were then removed using a 19 G×40 mm needle. The resulting suspension was returned to a sterile beaker kept on ice. The extracts from all the mice were pooled and this pooled cell suspension was counted using a Coulter counter and adjusted to a final cell count of 1-1.3×10^6 cells/ml prior to labelling with [^3 H]-arachidonic acid. Typically five mice provided sufficient cells for each multiwell plate.
Sufficient [^3 H]-arachidonic acid in ethanol to give a final concentration of 1.6 μCi/ml (equivalent to 40 μCi/plate) was blown to dryness under nitrogen. The arachidonic acid was then resuspended in 1 or 2 ml of the cell suspension which was then mixed with the remainder of the cell suspension in a centrifuge bottle.
The following day, non-adherent cells were removed by washing 3 times with sterile phosphate buffered saline (PBS). The adherent peritoneal macrophages were then cultured for a further 24 hours in the presence or absence of drugs, in medium B (see below) at 37° in a 5% CO2 atmosphere in order to measure the effects of drugs on the spontaneous release of arachidonic acid in the absence of stimulus. After this incubation, supernatants were removed to give medium 1 and stored in sealed multi-well plates at 4° C. prior to scintillation counting. […] The supernatants were replaced by fresh medium C containing fresh drug and a stimulus. Three drugs were tested at six concentrations (100, 50, 20, 10, 5 and 1 μM) in replicates of four on each plate. The other wells contained controls consisting of a positive control (e.g. dexamethasone), medium (B) only and medium C only.
Incubation was then continued for a further 5 hours, whereupon the supernatants were collected to give medium 2 and the adherent cells washed with PBS. The cells were then lysed with 100 μl of 0.1% TRITON® X100 in a 0.1% solution of bovine serum albumin in 0.9% saline and mechanically disrupted to give cell lysates. These supernatants (medium 2) and cell lysates (Cells) were also stored in sealed multi-well plates at 4° C. prior to scintillation counting. 200 μl aliquots of media, or 100 μl aliquots of cells were counted using 2 ml of OPTIPHASE "HIGH SAFE" (Trademark of LKB) as scintillant.
The percentage of arachidonic acid released was calculated using the mean values for each group of 4 wells in the following equation. [formula]
The percentage inhibition of arachidonic acid release caused by a drug may then be calculated using the following equation. [formula]
Medium A (for peritoneal lavage)
This mixture was transferred to sterile flask and made up to 400 ml with sterile water.
Medium B (for cell culture)
This mixture was transferred to a sterile beaker and made up to 650 ml with sterile water.
Medium C=medium B+stimulant (zymosan)
The zymosan stimulant was prepared as follows:--zymosan (200 mg) (supplied by Sigma) was added to PBS (20 ml). The mixture was boiled for 30 minutes and the volume restored to 20 ml with water. The zymosan was harvested by centrifugation at 500×g for 5 minutes, washed twice by resuspension in PBS (10 ml) and centrifugation. After the final separation, the zymosan was resuspended in 20 ml PBS and stored as 1 ml aliquots at -20° C.

The subject of test [2] is carrageenan-induced paw oedema. Kind of test: Test B: Carrageenan-induced rat paw oedema test. Type of test: in vivo. The conditions noted are these: inhibition of paw oedema, 100 mg/kg oral, 3 h after carrageenan. As to the method:
Test B was carried out in the following way:
Carrageenan-induced rat paw oedema test
Female rats, weight range 125-150 g were fasted overnight. One of the hind legs of each animal was marked with a line at the connection between the cuboid/navicular and calcaneus/talus bones. Groups of six rats were orally dosed at 10 ml/kg, in random order, with a given dose of the test compound given as a solution or suspension in 10% (w/v) aqueous acacia solution.
One hour after dosing, 0.1 ml of 1% (w/v) sterile carrageenan λ in normal saline was injected deeply into the plantar surface of the marked hind foot of each rat. The volume of the foot (up to the marked line) was measured immediately after injection using duplicate water displacement readings. Three hours after injection the foot volume was measured again and the percentage increase in foot volume relative to the initial reading was calculated.
The increase in foot volume (i.e. the degree of oedema) in drug treated animals when compared with that in the drug untreated control gave the degree of inhibition of paw oedema by the drug.
Compounds were considered to be active in this test if they produced a statistically significant (typically 20% or greater) inhibition of paw oedema in at least two out of three tests after oral dosing at 100 mg/kg. Statistical significance was assessed using the Student's t test for single dose studies and Dunnett's test for multiple dose studies. More advantageous compounds were active in both Tests A and B,
(In the carrageenan paw model, swelling and tenderness develop within hours.)

In test [3] the test system is carrageenan-induced pleurisy. Kind of test: Test C: Carrageenan-induced pleurisy in rats. The format is in vivo, rat. The conditions noted are these: 24 h and 48 h, leukocytes harvested at 72 h; for activity in Test C at 10 mg/kg or less: 10 mg/kg or less p.o. at challenge. As to the method: The most advantageous compounds of formula I were active in Test A and also in the following test. Carrageenan-induced pleurisy in rats was carried out as described by Ackerman et al. J. Pharmacol. Exp. Therap. 1980, 215, 588-595. Migrating leukocytes were harvested by lavage of the thoracic cavity 72 h after injection of 0.3 ml 1% λ-carrageenan in sterile isotonic saline. Test compounds were administered p.o. at the time of challenge and 24 h and 48 h thereafter.

For the molecule `CN(C)Cc1c(Cl)cccc1OCCN(C)Cc1ccccc1` [Example 1, 2-[2-(N-benzyl-N-methylamino)ethoxy]-6-chloro-N,N-dimethylbenzylamine], in test [1], the concentration for half-maximal inhibition (IC50) came to 15 µM. In test [2], this molecule showed an inhibition at 100 mg/kg of 70%. Further, the “activity in Test C at 10 mg/kg or less” value in test [3] is “active”.

In turn, `CN(C)Cc1cccc(Cl)c1OCCN(C)Cc1ccccc1` [Example 2, 2-[2-(N-Benzyl-N-methylamino)ethoxy]-3-chloro-N,N-dimethylbenzylamine] displayed an IC50 in test [1] of 65 µM.

Molecule `CN(C)Cc1cc(F)ccc1OCCN(C)Cc1ccccc1` [Example 3, 2-[2-(N-Benzyl-N-methylamino)ethoxy]-5-fluoro-N,N-dimethylbenzylamine] gave an IC50 in test [1] of 20 µM. In addition, at 100 mg/kg the inhibition in test [2] was 52%. Further, in test [3] (30 mg/kg p.o. at challenge), the “activity in Test C at 30 mg/kg” value is on record as “active”.

Molecule `CN(C)Cc1cc(C#N)ccc1OCCN(C)Cc1ccccc1` [Example 4, 4-[2-(N-Benzyl-N-methylamino)ethoxy]-3-(dimethylaminomethyl)benzonitrile] registered an IC50 in test [1] of 60 µM.

In test [1], `CN(C)Cc1cc(Cl)c(Cl)cc1OCCN(C)Cc1ccccc1` [Example 5, 2-[2-(N-Benzyl-N-methylamino)ethoxy]-4,5-dichloro-N,N-dimethylbenzylamine] had an IC50 of 12 µM. The inhibition at 100 mg/kg in test [2] is 6%.

Turning to `CN(C)Cc1cc(C(F)(F)F)ccc1OCCN(C)Cc1ccccc1` [Example 7, 2-[2-(N-Benzyl-N-methylamino)ethoxy]-N,N-dimethyl-5-trifluoromethylbenzylamine], inhibition in test [1] was half-maximal at 20 µM (IC50). In test [2], this molecule came in with an inhibition at 100 mg/kg of 18%.

For `CN(C)Cc1cc(Cl)ccc1OCCNCc1ccccc1` [Example 9, 2-[2-(Benzylamino)ethoxy]-5-chloro-N,N-dimethylbenzyl-amine], in test [1], half-maximal inhibition (IC50) was put at 9 µM. The same molecule gave an inhibition at 100 mg/kg in test [2] of 56%.

In turn, `CN(C)Cc1cc(Cl)ccc1OCCN(C)Cc1ccc(C#N)cc1` [Example 10, 4-{N-[2-(4-Chloro-2-dimethylaminomethylphenoxy)ethyl]-N-[methyl]aminomethyl}benzonitrile] showed an IC50 in test [1] of 47 µM.

With `CN(C)Cc1ccccc1OCCN(C)Cc1ccccc1Cl` [Example 14, 2-{2-[N-(2-Chlorobenzyl)-N-methylamino]ethoxy}-N,N-dimethylbenzylamine], in test [1], the IC50 came out at 45 µM. For the same molecule, in test [3], the “activity in Test C at 10 mg/kg or less” value is on record as “active”.

`CN(C)Cc1cc(Cl)ccc1OCCN1CCCCC1` [Example 16, 5-Chloro-2-(2-piperidinoethoxy)-N,N-dimethylbenzylamine]: the IC50 in test [1] worked out at 26 µM.

As for `COc1ccc(CN(C)C)c(OCCN(C)Cc2ccccc2)c1` [Example 18, 2-[2-(N-Benzyl-N-methylamino)ethoxy]-4-methoxy-N,N-dimethylbenzylamine], the IC50 in test [1] was 24 µM.

For the molecule `CCN(CC)CCOc1ccccc1CN(C)C` [Example 19, 2-(2-diethylaminoethoxy)-N,N-dimethylbenzylamine], the IC50 in test [1] is 65 µM.

In test [1], `CN(C)CCOc1ccccc1CN(C)C` [Example 23, 2-(2-dimethylaminoethoxy)-N,N-dimethylbenzylamine] had an IC50 of 62 µM. The IC50 values of the last two molecules are within 1.5-fold of each other.

For the molecule `CN(C)CCCOc1ccccc1CN(C)C` [Example 24, N,N-dimethyl-2-(3-dimethylaminopropoxy) benzylamine], half-maximal inhibition in test [1] (IC50) required 50 µM.

Take `CCN(CC)CCOc1ccc(Cl)cc1CN(C)C` [Example 25]: the IC50 in test [1] is 30 µM. In test [2], this molecule displayed an inhibition at 100 mg/kg of 22%.

In turn, `COC(=O)c1ccc(OCCN(C)Cc2ccccc2)c(CN(C)C)c1` [Example 26, methyl 4-[2-(N-benzyl-N-methylamino)ethoxy]-3-(dimethylaminomethyl) benzoate] came in with an IC50 in test [1] of 33 µM.

As for `COc1ccc(OCCN(C)Cc2ccccc2)c(CN)c1` [Example 27, 2-[2-(N-benzyl-N-methylamino)ethoxy]-5-methoxybenzylamine], in test [1], the IC50 amounted to 34 µM. This IC50 and that of the molecule before are within 1.5-fold of each other.

Turning to `CN(CCOc1ccc(Cl)cc1CN)Cc1ccccc1` [Example 28, 2-[2-(N-benzyl-N-methylamino)ethoxy]-5-chlorobenzylamine], it took 18 µM to reach half-maximal inhibition in test [1] (IC50).

The molecule `CN(CCCOc1cccc(Cl)c1CN)Cc1ccccc1` [Example 29, 2-[3-(N-benzyl-N-methylamino)propoxy]-6-chlorobenzylamine] yielded an IC50 in test [1] of 15 µM.

Molecule `CN(C)Cc1cc(Cl)ccc1OCCN(C)Cc1ccc(C(N)=O)cc1` [Example 30, 4-{N-[2-(4-chloro-2-dimethylaminomethylphenoxy)ethyl]-N-[methyl]aminomethyl}benzamide] displayed an IC50 in test [1] of 74 µM.

In turn, `CN(C)Cc1cc(C(N)=O)ccc1OCCN(C)Cc1ccc(Cl)cc1` [Example 31, 4-{2-[N-(4-chlorobenzyl)-N-methylamino]ethoxy}-3-(dimethylaminomethyl)benzamide] showed an IC50 in test [1] of 39 µM. In test [2], this molecule registered an inhibition at 100 mg/kg of 19%.

As for `CN(C)Cc1cc(O)ccc1OCCN(C)Cc1ccccc1` [Example 32, 4-[2-(N-benzyl-N-methylamino)ethoxy]-3-(dimethylaminomethyl)phenol], the IC50 in test [1] was 39 µM. Besides, in test [2], at 100 mg/kg the inhibition was 0%.

In test [1], `CN(C)Cc1c(Cl)cccc1OCCN(C)Cc1ccccc1O` [Example 33, 2-{N-[2-(3-chloro-2-dimethylaminomethylphenoxy)ethyl]-N-[methyl]aminomethyl}phenol] showed an IC50 of 16 µM. In addition, the “activity in Test C at 10 mg/kg or less” value in test [3] is recorded as “active”.

In the case of `COc1ccc(OCCN(C)Cc2ccccc2)c(CN(C)C)c1` [Example 34, 2-[2-(N-benzyl-N-methylamino)ethoxy]-5-methoxy-N,N-dimethylbenzylamine], in test [1], the IC50 is 35 µM.

Consider `CN(C)Cc1c(Cl)cccc1OCCCN(C)Cc1ccccc1` [Example 35, 2-[3-(N-benzyl-N-methylamino)propoxy]-6-chloro-N,N-dimethylbenzylamine], for which the IC50 in test [1] was determined as 33 µM. The “activity in Test C at 10 mg/kg or less” value in test [3] is on record as “active”.

On to `CN(C)Cc1ccccc1OCCNC(C)(C)c1ccc(Cl)cc1` [Example 36, 2-[2-(4-chloro-α,α-dimethylbenzylamino)ethoxy]-N,N-dimethylbenzylamine], for which the 50% inhibitory concentration (IC50) in test [1] is 3 µM. The “activity in Test C at 10 mg/kg or less” value in test [3] is listed as “active”.

As for `CN(CCOc1cccc(Cl)c1CN)Cc1ccccc1` [Example 37, 2-[2-(N-benzyl-N-methylamino)ethoxy]-6-chlorobenzylamine], in test [1], the IC50 came out at 12 µM. Further, the “activity in Test C at 10 mg/kg or less” value in test [3] is “active”.

For orientation: IC50 means the concentration at which inhibition is half-maximal. As usually defined, the inhibition is the change of the read-out against control, counted positive when it falls. A higher inhibition goes with a strong effect.
